Laboratory results from patent US4035481A, “Antibiotic A-28086 and process for production thereof” (Eli Lilly and Company, priority 1976, dated 1977).
Values after ≈ are worked out from the molar mass of the structure shown.

Legend:
rumen flora = test: In vitro rumen fluid incubation, volatile fatty acid production; parameters: species or system steer; conditions: 1 ppm in rumen fluid, 16 hours at 38° C
Excerpt: As discussed hereinabove, efficiency of carbohydrate utilization in ruminants is increased by treatments which stimulate the animal's rumen flora to produce propionate compounds rather than acetate or butyrate compounds. The efficiency of feed use can be monitored by observing the production and concentration of propionate compounds in the rumen, using the following methods:
Rumen fluid is obtained from a steer with a surgically-installed fistula opening into the rumen. The steer is maintained on a high-grain ration. A sample of rumen fluid is strained through four layers of cheesecloth, and the filtrate is collected. The particulate matter retained by the cheesecloth is resuspended in enough physiological buffer to return it to the original volume of the rumen fluid, and this suspension is strained again. The buffer used has the following composition:
The two filtrates are combined and allowed to stand until particulate matter separates to the top. The clear layer is separated, diluted with the same buffer (1:1) and then adjusted to between pH 6.8 to 7.0.
The diluted rumen fluid (10 ml) is placed in a 25-ml flask with 40 mg of the above-described feed, an additional 1 mg of soybean protein, and the compound to be tested. Four replicate flasks are used per treatment. Two sets of four control flasks each are also employed. A zero-time control and an incubated 16-hour control are used. All test flasks are incubated for 16 hours at 38° C. […] The samples are allowed to settle, and the supernatants are analyzed by gas chromatography for propionate, acetate, and butyrate compounds.

[1] = Microbiological activity of A-28086-I
[2] = Solubility in organic solvents and water; format: physicochemical
Staphylococcus aureus = test: Disc-diffusion zone of inhibition, Staphylococcus aureus; format: cell-based; conditions: 6 mm pads, 1 mg/ml
[3] = tested on: Bacillus subtilis ATCC6633; test: Disc-diffusion zone of inhibition, Bacillus subtilis ATCC6633; format: cell-based; conditions: 6 mm pads, 1 mg/ml
Sarcina lutea ATCC9341 = test: Disc-diffusion zone of inhibition, Sarcina lutea ATCC9341; format: cell-based; conditions: Micrococcus luteus, 6 mm pads, 1 mg/ml
[4] = tested on: Mycobacterium avium ATCC7992; test: Disc-diffusion zone of inhibition, Mycobacterium avium ATCC7992; format: cell-based; conditions: 6 mm pads, 1 mg/ml
[5] = tested on: Saccharomyces pastorianum ATCC2366; test: Disc-diffusion zone of inhibition, Saccharomyces pastorianum ATCC2366; format: cell-based
Candida tropicalis = test: Disc-diffusion zone of inhibition, Candida tropicalis; format: cell-based; conditions: 6 mm pads, 1 mg/ml
Fusarium moniliforme = test: Disc-diffusion zone of inhibition, Fusarium moniliforme; format: cell-based; conditions: Fusarium verticillioides; 6 mm pads, 1 mg/ml
Actinomyces bovis = test: Agar-dilution MIC, anaerobic bacteria; format: cell-based; conditions: 24-hour incubation
Procedure: (§1) The minimal inhibitory concentrations (MIC) at which A-28086 factor A inhibits various anaerobic bacteria, determined by standard agar-dilution assay, are summarized in Table VI. Endpoints were read after 24-hour incubation.

[6] = tested on: Bacteroides fragilis ssp. fragilis; test: Agar-dilution MIC, anaerobic bacteria; format: cell-based; conditions: 24-hour incubation
Procedure: as §1

[7] = tested on: Bacteroides fragilis ssp. thetaiotacmicron; test: Agar-dilution MIC, anaerobic bacteria; format: cell-based; conditions: 24 h
Procedure: as §1

[8] = tested on: Bacteroides fragilis ssp. vulgatis 1211; test: Agar-dilution MIC, anaerobic bacteria; format: cell-based; conditions: 24-hour incubation
Procedure: as §1

[9] = tested on: Bacteroides fragilis ssp. vulgatis No. 1563; test: Agar-dilution MIC, anaerobic bacteria; format: cell-based; conditions: 24-hour incubation
Procedure: as §1

Clostridium inocuum = test: Agar-dilution MIC, anaerobic bacteria; format: cell-based; conditions: 24-hour incubation
Procedure: as §1

Clostridium ramosum = test: Agar-dilution MIC, anaerobic bacteria; format: cell-based; conditions: Thomasclavelia ramosa, 24-hour incubation
Procedure: as §1

[10] = tested on: Clostridium septicum bovine; test: Agar-dilution MIC, anaerobic bacteria; format: cell-based; conditions: 24-hour incubation
Procedure: as §1

Clostridium septicum = test: Agar-dilution MIC, anaerobic bacteria; format: cell-based; conditions: 24-hour incubation
Procedure: as §1

Eubacterium aerofaciens = test: Agar-dilution MIC, anaerobic bacteria; format: cell-based; conditions: Collinsella aerofaciens, 24-hour incubation
Procedure: as §1

[11] = tested on: Fusobacterium necrophorum; test: Agar-dilution MIC, anaerobic bacteria; format: cell-based; conditions: 24-hour incubation
Procedure: as §1

Fusobacterium symbiosum = test: Agar-dilution MIC, anaerobic bacteria; format: cell-based; conditions: 24-hour incubation
Procedure: as §1

Peptococcus anaerobius = test: Agar-dilution MIC, anaerobic bacteria; format: cell-based; conditions: 24-hour incubation
Procedure: as §1

[12] = tested on: Peptostreptococcus intermedius; test: Agar-dilution MIC, anaerobic bacteria; format: cell-based; conditions: 24-hour incubation
Procedure: as §1

[13] = tested on: Propionibacterium acnes 44; test: Agar-dilution MIC, anaerobic bacteria; format: cell-based; conditions: Cutibacterium acnes, 24-hour incubation
Procedure: as §1

[14] = tested on: Propionibacterium acnes 79; test: Agar-dilution MIC, anaerobic bacteria; format: cell-based; conditions: Cutibacterium acnes, 24-hour incubation
Procedure: as §1

Veillonella alcalescens = test: Agar-dilution MIC, anaerobic bacteria; format: cell-based; conditions: Veillonella parvula, 24-hour incubation
Procedure: as §1

Clostridium perfringens = test: microbe, parasite or virus in culture; format: cell-based; conditions: 24 h
M. gallisepticum = test: In vitro broth-dilution MIC, Mycoplasma; format: cell-based; conditions: Mycoplasmoides gallisepticum
Excerpt: (§2) Activity against Mycoplasma is another useful aspect of the antimicrobial activity of the A-28086 compounds. Mycoplasma species, also known as pleuropneumonia-like (PPLO) organisms, are pathogenic to man and various animals. Agents active against PPLO organisms are especially needed by the poultry industry. The minimal inhibitory concentrations (MIC) of antibiotic A-28086 factor A against various Mycoplasma species, as determined by in vitro broth-dilution studies, are summarized in Table VII below: […]

M. hyorhinis = test: In vitro broth-dilution MIC, Mycoplasma; format: cell-based; conditions: Mesomycoplasma hyorhinis
Excerpt: as §2

M. synoviae = test: In vitro broth-dilution MIC, Mycoplasma; format: cell-based; conditions: Mycoplasmopsis synoviae
Excerpt: as §2

M. hypopneumoniae = test: In vitro broth-dilution MIC, Mycoplasma; format: cell-based, Mycoplasma hypopneumoniae
Excerpt: as §2

M. hyosynoviae = test: In vitro broth-dilution MIC, Mycoplasma; format: cell-based, Mycoplasma hyosynoviae
Excerpt: as §2

[15] = tested on: Transmissible Gastro-enteritis virus; format: cell-based; conditions: tissue-culture test
[16] = Acute toxicity in mice, intraperitoneal; conditions: mouse, in vivo, ip
Eimeria brunetti = test: Anticoccidial activity in chicks challenged with Eimeria brunetti (Table IX); format: in vivo, broiler cockerels; conditions: 0.005 % in feed
Excerpt: ^1 Four replicates, 5 broiler cockerels each

sheep = test: Feed-utilization efficiency in sheep; format: in vivo; conditions: 56 days
[17] = Electrometric titration (pKa of titratable group); conditions: 80% aqueous dimethylformamide

CCC(=O)OC1C=CC2(OC(C(CC)C(=O)C(C)C(O)C(C)C3OC(C(CC)C(=O)O)C(C)CC3C)C(C)CC2C)OC12CCC(C)(C1CCC(O)(CC)C(C)O1)O2 (centres unmarked)
Ratio of Treated to Control, Molar % acetate (rumen flora): 0.90 | Ratio of Treated to Control, Molar % butyrate (rumen flora): 0.68 | Ratio of Treated to Control, Total VFA mM/1 (rumen flora): 1.25

CCC(C(=O)OC)C1OC(C(C)C(O)C(C)C(=O)C(CC)C2OC3(C=CC(O)C4(CCC(C)(C5CCC(O)(CC)C(C)O5)O4)O3)C(C)CC2C)C(C)CC1C (centres unmarked) [A-28086-I]
microbiological activity [1]: not microbiologically active

CCCCCC(=O)OC1C=CC2(OC(C(CC)C(=O)C(C)C(O)C(C)C3OC(C(CC)C(=O)O)C(C)CC3C)C(C)CC2C)OC12CCC(C)(C1CCC(O)(CC)C(C)O1)O2 (centres unmarked)
Ratio of Treated to Control, Molar % acetate (rumen flora): 0.86 | Ratio of Treated to Control, Molar % butyrate (rumen flora): 0.97 | Ratio of Treated to Control, Total VFA mM/1 (rumen flora): 0.99

CCC(C(=O)O)C1OC(C(C)C(O)C(C)C(=O)C(CC)C2OC3(C=CC(O)C4(CCC(C)(C5CCC(O)(CC)C(C)O5)O4)O3)C(C)CC2C)C(C)CC1C (centres unmarked) [A-28086 factor A]
solubility in organic solvents ([2]; methanol, ethanol, dimethylformamide, dimethyl sulfoxide, ethyl acetate, chloroform, acetone, benzene): soluble | solubility in nonpolar organic solvents ([2]; such as hexane): only slightly soluble | solubility in water ([2]; water): insoluble | zone of inhibition at 1000 µg/mL (Staphylococcus aureus): 19 mm | zone of inhibition at 1000 µg/mL [3]: 28 mm | zone of inhibition at 1000 µg/mL (Sarcina lutea ATCC9341): 26 mm | zone of inhibition at 1000 µg/mL [4]: 12 mm | zone of inhibition at 1000 µg/mL [5]: 17 mm | zone of inhibition at 1000 µg/mL (Candida tropicalis): 14 mm | zone of inhibition at 1000 µg/mL (Fusarium moniliforme): 12 mm | MIC (Actinomyces bovis): < 0.5 µg/mL | MIC [6]: 8 µg/mL (≈ 10.5 µM) | MIC [7]: 8 µg/mL (≈ 10.5 µM) | MIC [8]: 2 µg/mL (≈ 2.61 µM) | MIC [9]: 8 µg/mL (≈ 10.5 µM) | MIC (Clostridium inocuum): < 0.5 µg/mL | MIC (Clostridium ramosum): 4 µg/mL (≈ 5.23 µM) | MIC [10]: < 0.5 µg/mL | MIC (Clostridium septicum): < 0.5 µg/mL | MIC (Eubacterium aerofaciens): 1 µg/mL (≈ 1.31 µM) | MIC [11]: 8 µg/mL (≈ 10.5 µM) | MIC (Fusobacterium symbiosum): < 0.5 µg/mL | MIC (Peptococcus anaerobius): < 0.5 µg/mL | MIC [12]: 16 µg/mL (≈ 20.9 µM) | MIC [13]: 16 µg/mL (≈ 20.9 µM) | MIC [14]: 2 µg/mL (≈ 2.61 µM) | MIC (Veillonella alcalescens): 16 µg/mL (≈ 20.9 µM) | MIC (Clostridium perfringens): < 0.5 µg/mL | MIC (M. gallisepticum): 12.5 µg/mL (≈ 16.3 µM) | MIC (M. hyorhinis): 12.5 µg/mL (≈ 16.3 µM) | MIC (M. synoviae): 6.25 µg/mL (≈ 8.17 µM) | MIC (M. hypopneumoniae): 6.25 µg/mL (≈ 8.17 µM) | MIC (M. hyosynoviae): 6.25 µg/mL (≈ 8.17 µM) | antiviral activity [15]: active | LD50 [16]: 7.15 mg/kg | Average Lesion Score (Eimeria brunetti): 1.2 | Oocysts Passed Percent Reduction (Eimeria brunetti): 58% | Percent Mortality (Eimeria brunetti): 0% | Percent Weight Gain (Eimeria brunetti): 88% | Ratio of Treated to Control, Molar % acetate (rumen flora): 0.94 | Ratio of Treated to Control, Molar % butyrate (rumen flora): 0.87 | Ratio of Treated to Control, Total VFA mM/1 (rumen flora): 1.26 | Percent Improvement (sheep; 9 g per ton of feed): 12% | Percent Improvement (sheep; 18 g per ton of feed): 1% | pKa [17]: 7.9

CCC(C(=O)O)C1OC(C(C)C(O)C(C)C(=O)C(CC)C2OC3(C=CC(OC(C)=O)C4(CCC(C)(C5CCC(O)(CC)C(C)O5)O4)O3)C(C)CC2C)C(C)CC1C (centres unmarked) [A-28086 factor A acetyl ester derivative]
Ratio of Treated to Control, Molar % acetate (rumen flora): 0.79 | Ratio of Treated to Control, Molar % butyrate (rumen flora): 0.76 | Ratio of Treated to Control, Total VFA mM/1 (rumen flora): 1.04 | pKa [17]: 8.5

CCCC(=O)OC1C=CC2(OC(C(CC)C(=O)C(C)C(O)C(C)C3OC(C(CC)C(=O)O)C(C)CC3C)C(C)CC2C)OC12CCC(C)(C1CCC(O)(CC)C(C)O1)O2 (centres unmarked)
Ratio of Treated to Control, Molar % acetate (rumen flora): 0.91 | Ratio of Treated to Control, Molar % butyrate (rumen flora): 0.81 | Ratio of Treated to Control, Total VFA mM/1 (rumen flora): 1.19

CCCCC(=O)OC1C=CC2(OC(C(CC)C(=O)C(C)C(O)C(C)C3OC(C(CC)C(=O)O)C(C)CC3C)C(C)CC2C)OC12CCC(C)(C1CCC(O)(CC)C(C)O1)O2 (centres unmarked)
Ratio of Treated to Control, Molar % acetate (rumen flora): 0.92 | Ratio of Treated to Control, Molar % butyrate (rumen flora): 0.79 | Ratio of Treated to Control, Total VFA mM/1 (rumen flora): 1.18
